Series [1] in a line: DRUGMATRIX: Sodium/nucleoside co-transporter radioligand binding (ligand: nitrobenzylthioinosine). The format is cell membranes, Cavia porcellus, Dunkin-Hartley, Cerebral cortex, Membrane. The note with it: Not Active = under 50% inhibition at 10 µM.
The target of series [2] is Histamine H2 receptor (Homo sapiens, UniProt P25021). Format: cell membranes, CHO-K1, Membrane. Further: in other assays of this panel Not Active means under 50% inhibition at 10 µM.
Series [3] concerns the target Aldo-keto reductase family 1 member B1 (Rattus norvegicus, UniProt P07943). The experiment in a line: biochemical. The format is tissue-based, Lens of camera-type eye.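 Further: inhibition of aldose reductase enzyme activity, measured with DL-glyceraldehyde as the substrate; in other assays of this panel Not Active means under 50% inhibition at 10 µM.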
Series [4] has as its target T1, 5-hydroxytryptamine receptor 1A (Rattus norvegicus, UniProt P19327). Further: in other assays of this panel Not Active means under 50% inhibition at 10 µM.
T1 sequence (P19327 whole entry): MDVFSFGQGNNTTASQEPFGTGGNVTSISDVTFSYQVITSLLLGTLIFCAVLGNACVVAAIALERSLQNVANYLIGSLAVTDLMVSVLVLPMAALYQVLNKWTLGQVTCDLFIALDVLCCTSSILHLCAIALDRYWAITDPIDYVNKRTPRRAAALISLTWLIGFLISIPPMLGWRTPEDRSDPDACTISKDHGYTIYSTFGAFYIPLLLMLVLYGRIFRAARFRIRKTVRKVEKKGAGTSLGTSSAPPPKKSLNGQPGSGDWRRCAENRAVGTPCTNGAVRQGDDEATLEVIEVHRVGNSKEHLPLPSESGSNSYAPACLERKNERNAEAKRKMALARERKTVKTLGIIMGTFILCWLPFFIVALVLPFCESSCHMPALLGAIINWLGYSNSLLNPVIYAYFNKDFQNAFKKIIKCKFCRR
The format is cell membranes, CHO-K1, Membrane. The note with it: for Ki: read-out: Ki.

In series [5] the target is Estrogen receptor beta (Homo sapiens, UniProt Q92731). To be noted: sf9. Further: in other assays of this panel Not Active means under 50% inhibition at 10 µM.
The target of series [6] is Cytochrome P450 2C9 (Homo sapiens, UniProt P11712). To be noted: bti-tn-5b1-4. Further: in other assays of this panel Not Active means under 50% inhibition at 10 µM.
Sequence of Cytochrome P450 2C9 (P11712 whole entry): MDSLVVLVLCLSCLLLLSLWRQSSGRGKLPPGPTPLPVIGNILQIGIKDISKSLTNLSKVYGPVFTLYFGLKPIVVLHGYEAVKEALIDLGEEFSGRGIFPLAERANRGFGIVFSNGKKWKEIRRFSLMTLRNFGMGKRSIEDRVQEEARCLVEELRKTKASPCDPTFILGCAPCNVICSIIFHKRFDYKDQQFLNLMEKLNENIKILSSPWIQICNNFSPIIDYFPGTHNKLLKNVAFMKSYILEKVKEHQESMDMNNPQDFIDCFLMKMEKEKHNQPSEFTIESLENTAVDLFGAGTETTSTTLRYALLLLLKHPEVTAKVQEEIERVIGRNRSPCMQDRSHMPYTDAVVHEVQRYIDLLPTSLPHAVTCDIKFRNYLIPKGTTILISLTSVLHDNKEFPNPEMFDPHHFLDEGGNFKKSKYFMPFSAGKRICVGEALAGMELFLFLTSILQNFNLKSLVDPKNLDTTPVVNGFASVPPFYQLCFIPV

Sequence of Histamine H2 receptor (P25021 whole entry): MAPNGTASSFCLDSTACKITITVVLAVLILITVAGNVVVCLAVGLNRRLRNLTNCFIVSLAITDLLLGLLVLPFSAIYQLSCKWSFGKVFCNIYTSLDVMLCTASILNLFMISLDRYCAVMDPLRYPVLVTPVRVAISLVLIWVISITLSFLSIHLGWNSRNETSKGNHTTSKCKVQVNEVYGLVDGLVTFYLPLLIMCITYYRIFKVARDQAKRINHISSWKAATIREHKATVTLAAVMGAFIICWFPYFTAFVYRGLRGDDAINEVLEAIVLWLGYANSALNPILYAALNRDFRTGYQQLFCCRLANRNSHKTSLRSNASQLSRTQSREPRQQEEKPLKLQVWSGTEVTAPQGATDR
Sequence of Estrogen receptor beta (Q92731 whole entry): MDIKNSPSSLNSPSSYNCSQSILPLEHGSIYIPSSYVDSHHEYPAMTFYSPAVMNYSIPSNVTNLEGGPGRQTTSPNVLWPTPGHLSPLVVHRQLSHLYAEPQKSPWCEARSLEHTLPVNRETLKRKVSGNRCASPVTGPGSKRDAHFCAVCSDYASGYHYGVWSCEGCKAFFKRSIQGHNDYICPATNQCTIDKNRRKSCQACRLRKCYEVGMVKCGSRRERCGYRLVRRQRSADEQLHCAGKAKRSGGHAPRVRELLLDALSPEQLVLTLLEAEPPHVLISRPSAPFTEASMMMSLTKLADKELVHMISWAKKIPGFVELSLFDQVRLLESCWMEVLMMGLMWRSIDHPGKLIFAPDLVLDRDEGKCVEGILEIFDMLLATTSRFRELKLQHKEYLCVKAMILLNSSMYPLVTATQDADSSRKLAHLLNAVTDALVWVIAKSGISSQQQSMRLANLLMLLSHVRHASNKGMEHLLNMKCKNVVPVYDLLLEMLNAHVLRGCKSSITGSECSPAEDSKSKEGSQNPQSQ

Broadly, the IC50 is the midpoint of a concentration-inhibition curve. A word on the Ki: it is the equilibrium dissociation constant of an inhibitor or competing ligand from its target. For the molecule `COc1cc(N)nc2[nH]c(-c3ccc(F)cc3)c(-c3ccncc3)c12`, the concentration for half-maximal inhibition (IC50) result in series [1], in series [2] (cho-k1), in series [3], in series [4] (cho-k1) and in series [5] was “Not Active” in each case. The Ki result in series [1] is “Not Active”.

With `CCCc1nn(C)c2c(=O)[nH]c(-c3cc(S(=O)(=O)N4CCN(C)CC4)ccc3OCC)nc12`, the IC50 result in series [1], in series [2] (cho-k1), in series [3], in series [6] and in series [4] (cho-k1) was “Not Active” in each case. Besides, the Ki entry in series [1] and in series [6] was “Not Active” each time.

Turning to `CCOC(N)=O`, the 50% inhibitory concentration (IC50) result in series [1], in series [2] (cho-k1), in series [3], in series [6] and in series [4] (cho-k1) was “Not Active” in each case. Besides, the inhibition constant (Ki) entry in series [1] and in series [6] was “Not Active” in each case.

As to `CC(=O)Nc1nnc(S(N)(=O)=O)s1` [ACETAZOLAMIDE], the IC50 entry in series [2] (cho-k1), in series [3], in series [6], in series [4] (cho-k1) and in series [5] was “Not Active” each time. Besides, the inhibition constant Ki entry in series [6] was “Not Active”.

For `O=c1[nH]c2ccccc2n1CCCN1CCC(n2c(=O)[nH]c3cc(Cl)ccc32)CC1` [DOMPERIDONE], the IC50 entry in series [2] (cho-k1), in series [3], in series [4] (cho-k1) and in series [5] was “Not Active” each time.

With `CC(C)OC(=O)C(C)(C)Oc1ccc(C(=O)c2ccc(Cl)cc2)cc1` [FENOFIBRATE], the half-maximal inhibitory concentration (IC50) result in series [2] (cho-k1), in series [3], in series [6], in series [4] (cho-k1) and in series [5] was “Not Active” throughout. For the same molecule, the Ki entry in series [6] is “Not Active”.

Take `OCCN1CCN(CCCN2c3ccccc3Sc3ccc(C(F)(F)F)cc32)CC1` [FLUPHENAZINE]: the IC50 in series [2] (read-out: IC50) was 1230 nM; in series [3], “Not Active”; in series [4] (read-out: IC50) it was 1640 nM; in series [5], “Not Active”. The inhibition constant (Ki) was determined as 1200 nM in series [2] (read-out: Ki) and 939 nM in series [4].

For the molecule `O=P(O)(O)C(O)(Cc1cccnc1)P(=O)(O)O` [RISEDRONIC ACID], the IC50 entry in series [1], in series [2] (cho-k1), in series [3], in series [6] and in series [4] (cho-k1) was “Not Active” in each case. Moreover, the inhibitory constant (Ki) entry in series [1] and in series [6] was “Not Active” throughout.

`C=C(C)[C@H]1Cc2c(ccc3c2O[C@@H]2COc4cc(OC)c(OC)cc4[C@@H]2C3=O)O1` [ROTENONE]: the IC50 result in series [1], in series [2] (cho-k1), in series [3], in series [6] and in series [4] (cho-k1) was “Not Active” throughout. Also, the Ki result in series [1] and in series [6] was “Not Active” in each case.

In the case of `CO[C@H]1C[C@@H]2CC[C@@H](C)[C@@](O)(O2)C(=O)C(=O)N2CCCC[C@H]2C(=O)O[C@H]([C@H](C)C[C@@H]2CC[C@@H](O)[C@H](OC)C2)CC(=O)[C@H](C)/C=C(\C)[C@@H](O)[C@@H](OC)C(=O)[C@H](C)C[C@H](C)/C=C/C=C/C=C/1C` [SIROLIMUS], the IC50 in series [1] (read-out: IC50) was 1080 nM; in series [2] (cho-k1), “Not Active”; in series [3], “Not Active”; in series [4] (cho-k1), “Not Active”; in series [5] it was “Not Active”. Further, in series [1] (read-out: Ki), the Ki was 371 nM.

`CN[C@@H]1[C@H](O)[C@H](NC)[C@H]2O[C@@]3(O)C(=O)C[C@@H](C)O[C@H]3O[C@@H]2[C@H]1O` [SPECTINOMYCIN]: the IC50 entry in series [1], in series [2] (cho-k1), in series [3], in series [6] and in series [4] (cho-k1) was “Not Active” throughout. Moreover, the inhibition constant Ki entry in series [1] and in series [6] was “Not Active” in each case.

`Nc1ccc(S(=O)(=O)Nc2nccs2)cc1` [SULFATHIAZOLE]: the half-inhibitory concentration (IC50) result in series [1], in series [2] (cho-k1), in series [3], in series [6] and in series [4] (cho-k1) was “Not Active” each time. The inhibitory constant (Ki) result in series [1] and in series [6] was “Not Active” throughout.

Consider `C[C@]12CC[C@H]3[C@@H](CCC4=CC(=O)CC[C@@]43C)[C@@H]1CC[C@@H]2O` [TESTOSTERONE], for which the 50% inhibitory concentration (IC50) result in series [1], in series [2] (cho-k1), in series [3], in series [4] (cho-k1) and in series [5] was “Not Active” each time. For the same molecule, in series [1], the Ki result was “Not Active”.

Regarding `CC(C)(C)NC[C@H](O)COc1nsnc1N1CCOCC1` [TIMOLOL], the IC50 entry in series [1] is “Not Active”; in series [2] (cho-k1) it was “Not Active”; in series [3] it was “Not Active”; in series [6] it was “Not Active”; in series [4] (read-out: IC50), 2710 nM. Further, the Ki result in series [1] was “Not Active”; in series [6] it was “Not Active”; in series [4] it was 1550 nM.

Regarding `CCS(=O)(=O)CCn1c([N+](=O)[O-])cnc1C` [TINIDAZOLE], the IC50 result in series [1], in series [2] (cho-k1), in series [3] and in series [4] (cho-k1) was “Not Active” throughout. Further, the inhibition constant Ki result in series [1] was “Not Active”.

Take `O=c1n(CCCN2CCN(c3cccc(Cl)c3)CC2)nc2ccccn12` [TRAZODONE]: the concentration for half-maximal inhibition (IC50) result in series [2] (cho-k1), in series [3] and in series [6] was “Not Active” throughout. Also, in series [6], the inhibitory constant (Ki) result is given as “Not Active”.

For the molecule `O=C(O)C(Cl)(Cl)Cl` [TRICHLOROACETIC ACID], the IC50 entry in series [1], in series [2] (cho-k1), in series [3], in series [6] and in series [4] (cho-k1) was “Not Active” each time. Also, the inhibition constant Ki entry in series [1] and in series [6] was “Not Active” in each case.

Turning to `COc1ccc(CN2CCNCC2)c(OC)c1OC` [TRIMETAZIDINE], the IC50 result in series [1], in series [2] (cho-k1), in series [3], in series [4] (cho-k1) and in series [5] was “Not Active” each time. The inhibitory constant (Ki) entry in series [1] is recorded as “Not Active”.

In the case of `CC(=O)O[C@H]1C[C@@H]2CC[C@@H]3[C@H](CC[C@@]4(C)[C@H]3C[C@H]([N+]3(C)CCCCC3)[C@@H]4OC(C)=O)[C@@]2(C)C[C@@H]1N1CCCCC1.[Br-]` [VECURONIUM BROMIDE], the IC50 entry in series [1], in series [2] (cho-k1), in series [3], in series [6] and in series [4] (cho-k1) was “Not Active” in each case. The Ki entry in series [1] and in series [6] was “Not Active” throughout.

`COc1cc(C(=O)NS(=O)(=O)c2ccccc2C)ccc1Cc1cn(C)c2ccc(NC(=O)OC3CCCC3)cc12` [ZAFIRLUKAST]: the IC50 entry in series [1], in series [2] (cho-k1), in series [3], in series [4] (cho-k1) and in series [5] was “Not Active” in each case. Further, in series [1], the Ki entry is given as “Not Active”.

In the case of `Cc1cn([C@H]2C[C@H](N=[N+]=[N-])[C@@H](CO)O2)c(=O)[nH]c1=O` [ZIDOVUDINE], the IC50 result in series [1], in series [2] (cho-k1), in series [3], in series [6] and in series [4] (cho-k1) was “Not Active” each time. For the same molecule, the inhibition constant (Ki) entry in series [1] and in series [6] was “Not Active” throughout.

The record behind these values is ChEMBL document CHEMBL1909046, “DrugMatrix in vitro pharmacology data”.
